The values below come from PubChem BioAssay (NCI).

Experiment in all cases: DTP human tumour cell line panel, 48 h
For assay [1], the system named is A498 renal.
The test system of assay [2] is ACHN renal.
Assay [3] has as its system HCC-2998 colon.
Assay [4] concerns KM12 colon.
Assay [5] relates to NCI-H226 lung.
Assay [6] has as its system SK-OV-3 ovarian.
Assay [7] concerns SW-620 colon.
In assay [8] the test system is TK-10 renal.
For assay [9], the system named is MDA-MB-435.
In assay [10] the test system is NCI/ADR-RES ovarian.

Structures are written as SMILES.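 Protocol summary: plate cells (96-well), add compound at 5 concentrations, incubate 48 h, interpolate endpoints linearly. Abbreviation: GI50, concentration required for 50% inhibition of growth. TGI: concentration producing complete growth inhibition.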 Bounds are passed on as bounds.

`CCCCCCCCCCCC(=O)OC(COC(N)=O)COc1ccc(Cl)cc1` (stereo not given): the concentration for total growth inhibition (TGI) in [1] is over 100 µM; in assay [2], over 100 µM; in [3], 96.1 µM; in assay [4] it was 61.1 µM; in [5] it was 46.1 µM; in assay [6] it was over 100 µM. The TGI was 63 µM in assay [7] and over 100 µM in assay [8].
With `NCC1(N2CCOCC2)C2CCCC21CNc1ccccc1` (stereo not given), the TGI in assay [2], in assay [3], in assay [4], in assay [7] and in assay [8] was over 100 µM each time.
`NC(=O)c1ncn(Cc2ccccc2)c1CNC(N)=S`: the concentration for total growth inhibition (TGI) in assay [2], in assay [3], in assay [4], in [5], in assay [6] and in assay [7] was over 100 µM throughout. Also, the concentration for total growth inhibition (TGI) in assay [8] was over 100 µM.
Turning to `O=C(/C=C/c1ccc(O)cc1)c1cc(Cl)ccc1O`, the TGI in [1], in assay [2], in assay [3], in assay [4], in assay [5] and in [6] was over 100 µM each time. The TGI in [7] and in assay [8] was over 100 µM in each case.
With `CC1COCCN1CC#CCOC(=O)c1cc2ccccc2oc1=O` (stereo not given), the GI50 in assay [2], in [3], in [4], in assay [9], in [5] and in assay [10] was over 100 µM throughout. Besides, the GI50 in assay [6], in [7] and in assay [8] was over 100 µM throughout. Also, the TGI in assay [2], in [3], in assay [4], in assay [9], in [5] and in [10] was over 100 µM throughout. Besides, the TGI in [6], in assay [7] and in assay [8] was over 100 µM each time.
For the compound `N=C1/C(=C2\Nc3ccccc3S2)CC(=O)N1c1ccc(SC(F)F)cc1`, the GI50 was 6.98 µM in assay [2]; 8.13 µM in [4]; 7.69 µM in assay [9]; 60.9 µM in assay [5]; 6.52 µM in [10]; 8.6 µM in assay [6]. Moreover, the values for the GI50 in assay [7] and in assay [8] were 5.37 µM and 22 µM, respectively. Moreover, the TGI in [2], in assay [4], in assay [9], in assay [5], in assay [10] and in [6] was over 100 µM each time. For the same compound, the TGI in assay [7] and in [8] was over 100 µM throughout.
Regarding `O=C1c2ccccc2C(=O)c2c1ccc1c2N=C(c2ccc(Br)cc2)CC(c2cccc3ccccc23)N1` (stereo not given), the concentration for total growth inhibition (TGI) in [2], in assay [3], in [4], in assay [5], in assay [6] and in assay [7] was over 100 µM each time. This compound had a TGI in [8] of over 100 µM.
In the case of `Cn1cnc([N+](=O)[O-])c1Sc1nc2ccc([N+](=O)[O-])cc2[nH]1`, the TGI in [1] is 83.4 µM; in assay [2] it was over 100 µM; in assay [3], 29.2 µM; in [4] it was over 100 µM; in [5], over 100 µM; in assay [6], 62.5 µM. Further, the TGI in assay [7] is over 100 µM; in [8] it was 59.3 µM.
On to `CC(=O)C(C=O)C(C)=O.CC(=O)CC(C)=O.CC(=O)CC(C)=O.[Ru]`, for which the GI50 in [2] was 21 µM; in assay [4], 27.2 µM; in [9], 43.5 µM; in assay [5] it was 5.83 µM; in assay [10], 21.8 µM; in assay [6], 76.8 µM. Besides, the GI50 in assay [7] is 15.6 µM; in assay [8], 38.9 µM. The TGI is over 100 µM in assay [2]; over 100 µM in assay [4]; over 100 µM in assay [9]; 35.2 µM in assay [5]; 95 µM in [10]; over 100 µM in [6]. Besides, the TGI is 69 µM in assay [7] and over 100 µM in assay [8].
In the case of `CC1CC(c2ccc(Cl)c(Cl)c2)=Nc2ccccc2S1` (stereo not given), the TGI in assay [1], in [2], in assay [3], in [4], in assay [5] and in [6] was over 100 µM each time. In addition, the TGI in assay [7] and in [8] was over 100 µM in each case.
With `CC1(C)CC(N2CCN(C3CC(C)(C)NC(C)(C)C3)CC2)CC(C)(C)N1`, the TGI in assay [1], in assay [2], in assay [3], in assay [4], in [6] and in assay [7] was over 100 µM each time. Also, in assay [8], the TGI is over 100 µM.
In the case of `N#Cc1cn(-c2c3ccccc3nc3ccccc23)c(=O)[nH]c1=O`, the TGI in assay [2] was 34.8 µM; in assay [4], 79.5 µM; in assay [6], 33.1 µM; in [7] it was 38 µM; in assay [8], over 100 µM.
As for `Cc1ccc2nc3c(C)cc(=O)cc-3sc2c1`, the TGI in [2] was 53.1 µM; in assay [3], 70.9 µM; in [4], 65.4 µM; in [5] it was over 100 µM; in assay [6], over 100 µM; in assay [7], 31.1 µM. Further, the TGI in assay [8] came out at 49.8 µM.
As to `O=C(O)c1cn(C2CC2)c2cc(N3CCN(Cc4ccc5ccccc5c4O)CC3)c(F)cc2c1=O`, the GI50 in assay [1] was 2.09 µM; in assay [9], 3.12 µM; in [5], 3.14 µM; in [6], 3.68 µM. Also, the TGI in assay [1] was 4.67 µM; in assay [9] it was over 100 µM; in assay [5], over 100 µM; in [6] it was over 100 µM.
Take `NC(=O)c1cc([N+](=O)[O-])cc([N+](=O)[O-])c1`: the TGI in assay [1], in assay [2], in assay [4], in assay [5], in assay [6] and in [7] was over 100 µM throughout. In [8], this compound yielded a TGI of over 100 µM.
